Active and inactive are the calls of the source. No rule for the calls is given here. Starred links: 1 amine or outer side, 2 acyl side, 3 side chain; linkers in the order of their positions; H or OH if unused. Non-standard residues stand in square brackets, D forms with d. Residues, ends and D or L forms follow the SMILES beside them. X2 = CCC[C@@H](N[*:1])[C@H](C)C(=O)O[C@H](C(=O)[*:2])[C@@H](C)CC; X1 = CC(N[*:1])C(=O)C(C)(C)C(=O)[*:2]; NMeY = CN[C@@H](Cc1ccc(O)cc1)C(=O)O; NMeL = CN[C@@H](CC(C)C)C(=O)O; NMeV = CN[C@H](C(=O)O)C(C)C; NMeA = CN[C@@H](C)C(=O)O
Test system: Jurkat NF-kB reporter, TCR-induced, luciferase luminescence
Assay: inhibitors of TCR-driven NF-kB activation, dose response, Jurkat cells, luminescence (AID 489035)

SMILES | IC50
Cn1cc(C(=O)N/N=C/c2c(O)ccc3ccccc23)ccc1=O | 1.89 µM
COc1ccccc1N=C(C)C1=C(O)CC(c2ccccc2)CC1=O (stereo not given) | > 80 µM (inactive)
O=C(N/N=C/c1c(O)ccc2ccccc12)c1cccc(C(F)(F)F)c1 | 10.4 µM
CCOC(=O)/C=C/S(=O)(=O)c1ccc(NC(C)=O)cc1 | 1.12 µM
Cc1cc(C)c2nc(C)cc(N/N=C/c3ccc(O)cc3)c2c1 | 2.9 µM
Cc1ccc(NC(=O)C2=C(c3ccccc3)S(=O)(=O)CCS2(=O)=O)cc1 | 1.61 µM
CCCCCC(=O)N[C@@H](c1ccccc1)[C@@H](O)C(=O)O[C@H]1C[C@@]2(O)[C@@H](OC(=O)c3ccccc3)C3[C@](C)(C(=O)[C@H](OC(C)=O)C(=C1C)C2(C)C)[C@@H](O)C[C@H]1OC[C@@]31OC(C)=O (stereo not given in full) | 32.3 µM (inactive)
CC1CCCN(c2ncnc3c2cnn3-c2ccc(Cl)cc2)C1 (stereo not given) | 10.5 µM
COc1ccccc1CNS(=O)(=O)c1ccc(-c2cc(C)no2)cc1 | > 80 µM (inactive)
COc1cc(NC(=O)N2CCNC2=O)cc(C(=O)Nc2cccc(C(F)(F)F)c2)c1 | > 80 µM (inactive)
Cc1ccc2c(c1)Oc1ccc(NC(=O)CCl)cc1C(=O)N2 | 5.22 µM
O=C1CC(c2cccc(Br)c2)c2cc3c(cc2N1)CCC3 (stereo not given) | 63.9 µM (inactive)
COC(=O)c1[nH]c2ccc(Br)cc2c1NC(=O)CN1CCN(C2CCCCC2)CC1 | 4.56 µM
CC(C)c1ccc(/C=N/Nc2ccc(C(=O)O)cc2)cc1 | 4.63 µM
CCOc1cc(C#N)c(NC(=O)c2cccnc2)cc1OCC | > 80 µM (inactive)
CC(C)(C)c1nnc(N/N=C/c2ccccc2O)n(N)c1=O | 12.2 µM
Cc1cnc(NC(=O)c2ccc3c(c2)OCCO3)s1 | 1 µM
C/C=C(\C)C(=O)N[C@@H](c1ccccc1)[C@@H](O)C(=O)O[C@H]1C[C@@]2(O)[C@@H](OC(=O)c3ccccc3)C3[C@](C)(C(=O)[C@H](OC(C)=O)C(=C1C)C2(C)C)[C@@H](O)C[C@H]1OC[C@@]31OC(C)=O (stereo not given in full) | < 0.16 µM
CCc1cc(C(=O)NC2CCCc3c2cnn3-c2cccc(C)c2C)n(C)n1 (stereo not given) | > 80 µM (inactive)
CCOC(=O)c1[nH]c(C)c(C(=O)Nc2cc(Cl)ccc2C)c1C | > 80 µM (inactive)
Cc1cc(C)c(CN2CCN(C(=O)Cn3cnc4c(OCc5ccccc5)ncnc43)CC2)c(C)c1 | > 80 µM (inactive)
COc1cc(/C=C/c2ccc3cccc(O)c3n2)cc(OC)c1OC | 1.59 µM
CCC[C@H]1NC(=O)[C@H](C)N(C)C(=O)C(C)(C)C(=O)C(C)NC(=O)[C@H](Cc2ccc(OC)cc2)N(C)C(=O)[C@H](C(C)C)N(C)C(=O)CNC(=O)[C@H](CC(C)C)N(C)C(=O)CNC(=O)[C@H]([C@@H](C)CC)OC(=O)[C@H]1C (stereo not given in full) (cyclo(G[NMeL]G[NMeV][NMeY](Me)[X1][NMeA][X2])) | > 80 µM (inactive)
CCCOCCOC(=O)c1[nH]c2c(c1C)C(=O)CC(c1cc(OC)ccc1OC)C2 (stereo not given) | > 80 µM (inactive)

SMILES | IC50
COc1cc(NS(=O)(=O)c2ccc(OC)c(C)c2C)c(OC)cc1Cl | > 80 µM (inactive)
COc1ccc(OC)c(-c2nnc3n2N=C(c2ccc(OC)c(OC4CCCC4)c2)CS3)c1 | 15.9 µM
Cc1noc(C)c1COc1cccc(C(=O)OCC(=O)N2CC(=O)Nc3ccccc32)c1 | > 80 µM (inactive)
COc1ccc(CC(=O)Nc2nc(-c3ccc(F)c(F)c3)cs2)cc1OC | 22.4 µM (inactive)
CC(=O)O[C@H]1C(=O)[C@@]2(C)C([C@H](OC(=O)c3ccccc3)[C@]3(O)C[C@H](OC(=O)[C@H](O)[C@@H](NC(=O)Cc4ccccc4)c4ccccc4)C(C)=C1C3(C)C)[C@]1(OC(C)=O)CO[C@@H]1C[C@@H]2O (stereo not given in full) | > 80 µM (inactive)
CCOC(=O)COc1cccc2c(=O)n(CC(=O)NCc3ccccc3)ccc12 | > 80 µM (inactive)
CC(C)(C)c1ccc(C(=O)Nc2ccc(Oc3cccnc3)nc2)cc1 | > 80 µM (inactive)
Cn1ncnc2c(=O)n(C)c(=O)nc1-2 | 0.51 µM
CCCC(=O)NC(c1ccc(OC)cc1)c1ccc2cccnc2c1O (stereo not given) | 2.83 µM
CC(C)Nc1ccc(C(CC(N)=O)NC(=O)Cc2ccc(Br)cc2)cc1[N+](=O)[O-] (stereo not given) | 1.71 µM
CC(C)(C)C(=O)Nc1ccc(NC(=O)c2ccco2)nc1 | 0.81 µM
CCC1CCCCN1C(=O)c1cc(COc2ccc3ncccc3c2)on1 (stereo not given) | > 80 µM (inactive)
CC(C)Oc1ccccc1C1CC(=O)Nc2cc3c(cc21)OCO3 (stereo not given) | > 80 µM (inactive)
CCCCCCCCC[n+]1cccc2c3ccccc3ccc21 | 8.65 µM
COc1cccc(/C=N/Nc2ncnc3c2ncn3Cc2ccccc2)c1O | > 80 µM (inactive)
CC(=O)Nc1ccc(S(=O)(=O)N2CCCc3ccccc32)cc1 | > 80 µM (inactive)
O=S(=O)(Nc1cccc2ncccc12)c1cccs1 | 0.89 µM
COc1cccc(C2CC(=O)Nc3cc4c(cc32)CCC4)c1 (stereo not given) | > 80 µM (inactive)
O=C1CC(c2cc(F)ccc2F)c2cc3c(cc2N1)CCC3 (stereo not given) | > 80 µM (inactive)
CS(=O)(=O)c1ccc(Sc2nc3ccccc3s2)c([N+](=O)[O-])c1 | 0.89 µM
CCCCCOC(=O)c1[nH]c2c(c1C)C(=O)CC(c1ccco1)C2 (stereo not given) | > 80 µM (inactive)
COc1ccc(C(=O)Nc2ccc3[nH]c(-c4cccc(OC)c4)cc(=O)c3c2)cc1 | < 0.16 µM
CCCCc1ccc(NC(=O)C(=O)NCCN2CCN(Cc3ccc([N+](=O)[O-])cc3)CC2)cc1 | > 80 µM (inactive)
Cc1ccc(NS(=O)(=O)c2ccc(C(=O)NC3CCN(Cc4ccccc4)CC3)cc2)cc1 | 19.8 µM

SMILES | IC50
COc1ccccc1CNS(=O)(=O)c1ccc(-c2cnc(C3CC3)o2)cc1 | 31.3 µM (inactive)
O=C1/C(=C/c2ccc(N3CCOCC3)o2)SC(=Nc2ccccc2)N1CCc1c[nH]c2ccccc12 | 18.3 µM
Cc1ccc(S(=O)(=O)Nc2ccccc2-c2ccccc2)cc1 | 22.6 µM (inactive)
CCCCc1ccc(NC(=O)c2ccc(N(C)S(C)(=O)=O)cc2)cc1 | < 0.16 µM
Cc1noc(C)c1COc1ccc(C(=O)NNC(=O)c2ccccc2F)cc1 | > 80 µM (inactive)
CCCCn1c2c(c(=N)c3c1CCC3)CCC2 | > 80 µM (inactive)
COC(=O)c1ccc2nc(Nc3nc4c(F)cc(F)cc4s3)sc2c1 | 52.9 µM (inactive)
CCn1c2ccccc2c2cc(NC(=O)c3cc(OC)cc(OC)c3)ccc21 | > 80 µM (inactive)
COc1cc(C(=O)OCCc2cc3ccccc3c(=O)o2)cc(OC)c1OC | 21.6 µM (inactive)
COc1ccc(C2=Nn3c([n+](C)c4ccccc43)SC2)cc1 | > 80 µM (inactive)
COc1ccc(/C=C/C(=O)c2cc(F)ccc2OC(=O)c2ccccc2)cc1OC | 2.49 µM
COc1ccc(C(=O)/C(C#N)=N/Nc2ccc([N+](=O)[O-])cc2)cc1 | 9.52 µM
Cc1c(C(=O)N/N=C/c2ccc(Cl)cc2)[nH]c2ccc(Cl)cc12 | > 80 µM (inactive)
CC(C)c1oc(=O)cc2c1[C@@H](O)[C@H]1OC(=O)[C@@]3(C)C[C@@H](O)[C@@H](O)[C@@]2(C)C13 (stereo not given in full) | 1.08 µM
CCOc1ccc2c(c1)sc(N)[n+]2Cc1cc(C)cc2cccnc12 | 7.8 µM
O=C1c2cccc3cc([N+](=O)[O-])cc(c23)C(=O)N1CCN1CCCC1 | > 80 µM (inactive)
CCCCCCCCCn1c2c(c(=N)c3c1CCC3)CCC2 | 7.67 µM
CSC1=NC(C(Cl)(Cl)Cl)N=C(c2ccc(C)cc2)N1 (stereo not given) | > 80 µM (inactive)
O[C@@H]1[C@@H](O)C=C2CCN3Cc4cc5c(cc4[C@H]1C23)OCO5 (stereo not given in full) | 0.84 µM
Cc1csc2ncnc(NC3CCN(Cc4ccccc4)CC3)c12 | > 80 µM (inactive)
O=C(NCCc1ccccc1)c1ccc2c(c1)OCCO2 | 1.64 µM
C[C@]12CCC3C(CCC4=CC(O)CC[C@@]43/C=N/O)C1(O)CCC2C1=CC(=O)OC1 (stereo not given in full) | 47.8 µM (inactive)
N=c1ccn(CC(=O)c2ccc(-c3ccccc3)cc2)cc1 | 54.5 µM (inactive)
CCCCN1/C(=C/c2ccc3ccccc3[n+]2CC)Sc2ccccc21 | > 80 µM (inactive)

SMILES | IC50
COc1ccc(OC)c(Nc2cc(-c3ccccc3)nc(N)n2)c1 | 26.9 µM (inactive)
CCn1c2ccccc2c2cc(NC(=O)c3cc(OC)c(OC)c(OC)c3)ccc21 | 76.2 µM (inactive)
Cc1ccc(-c2cc(C(F)F)n3ncc(C(=O)N4CCc5ccccc54)c3n2)cc1 | > 80 µM (inactive)
N/C(=N\OCc1ccc([N+](=O)[O-])cc1)c1ccccn1 | 0.67 µM
Cc1ccc(C(=O)c2cc([N+](=O)[O-])ccc2N2CCCCC2)cc1C | 37 µM (inactive)
COc1ccc(NC(=O)/C(Cl)=C(/Cl)S(=O)Cc2ccc(C)cc2)cn1 (stereo not given) | 0.32 µM
O=[N+]([O-])c1ccc(-c2nc(C(Cl)Cl)c3ccccc3n2)cc1 | 1.12 µM
COc1ccc(NC(=O)Cn2nnc(-c3ccccc3NS(=O)(=O)c3ccc(OC)cc3)n2)cc1 | > 80 µM (inactive)
O=C(Cc1ccc(-c2ccccc2)cc1)NCc1ccccc1 | < 0.16 µM
Cc1ccc(S(=O)(=O)Nc2cccc(-c3ccc4nncn4n3)c2)cc1 | > 80 µM (inactive)
Cc1cc(C)cc(NS(=O)(=O)c2ccc(-c3cnc(C4CC4)o3)cc2)c1 | 20.5 µM (inactive)
O=[N+]([O-])c1ccc(O)c(/C=N/Nc2ccc(Cl)nn2)c1 | 54 µM (inactive)
O=C(Nc1nc(-c2ccccc2)cs1)c1ccc(N2CCOCC2)c([N+](=O)[O-])c1 | > 80 µM (inactive)
COc1ccc(CCNc2cc(N3CCN(C(=O)c4ccccc4F)CC3)ccc2[N+](=O)[O-])cc1OC | > 80 µM (inactive)
COc1ccc(C(=O)c2ccc(N(C)C)cc2)c(OC)c1 | > 80 µM (inactive)
Cc1cccc(NS(=O)(=O)c2ccc(-c3cnc(C4CC4)o3)cc2)c1C | 27.6 µM (inactive)
Cc1ccc(C(=O)O/N=C(\N)c2ccccn2)c(Cl)c1 | 1.11 µM
COc1ccc(COC(=O)c2cc([N+](=O)[O-])ccc2N2CCOCC2)cc1F | > 80 µM (inactive)
Cc1ccc(C[n+]2c(-c3ccc(C)cc3)cc(-c3ccc(C)cc3)cc2-c2ccc(C)cc2)cc1 | 2.35 µM
COc1cc(/C=C2/SC(=Nc3ccc(O)cc3)NC2=O)ccc1O | 10.6 µM
O=C(Nc1cccc(C(F)(F)F)c1)c1sc(Cl)nc1C(F)(F)F | 0.59 µM
Cc1cc(NC(=O)CSc2nc3c(sc4ccccc43)c(=O)n2CCCN2CCOCC2)n[nH]1 | > 80 µM (inactive)
CCCCCCCn1c2c(c(=N)c3ccccc31)CCC2 | 12.3 µM

Source: PubChem BioAssay AID489035 (Sanford-Burnham Center for Chemical Genomics, 2010)
